Reference: article PMC8621101, “Inhibition of XPO-1 Mediated Nuclear Export through the Michael-Acceptor Character of Chalcones” (Pharmaceuticals, 2021)

Key:
XPO1 = molecular target: T1, XPO1 (Homo sapiens, UniProt O14980); experiment: XPO1 phenotypic reporter assay in HeLa NLSSV40-AcGFP-NESPKI cells; assay type: cell-based; details: HeLa GFP reporter cell line; for IC50: 2 h treatment, mean ± SEM of two independent experiments, read-out: XPO1 inhibition IC50
T1 construct: the compounds were assayed in a reporter cell line based on the subcellular localization of a XPO1-dependent GFP reporter cargo protein; endogenous in cells; host or cells: HeLa cells stably transfected with the NLSSV40-AcGFP-NESPKI reporter (only the reporter cargo is transfected, not XPO1)
T1 sequence (O14980 whole entry): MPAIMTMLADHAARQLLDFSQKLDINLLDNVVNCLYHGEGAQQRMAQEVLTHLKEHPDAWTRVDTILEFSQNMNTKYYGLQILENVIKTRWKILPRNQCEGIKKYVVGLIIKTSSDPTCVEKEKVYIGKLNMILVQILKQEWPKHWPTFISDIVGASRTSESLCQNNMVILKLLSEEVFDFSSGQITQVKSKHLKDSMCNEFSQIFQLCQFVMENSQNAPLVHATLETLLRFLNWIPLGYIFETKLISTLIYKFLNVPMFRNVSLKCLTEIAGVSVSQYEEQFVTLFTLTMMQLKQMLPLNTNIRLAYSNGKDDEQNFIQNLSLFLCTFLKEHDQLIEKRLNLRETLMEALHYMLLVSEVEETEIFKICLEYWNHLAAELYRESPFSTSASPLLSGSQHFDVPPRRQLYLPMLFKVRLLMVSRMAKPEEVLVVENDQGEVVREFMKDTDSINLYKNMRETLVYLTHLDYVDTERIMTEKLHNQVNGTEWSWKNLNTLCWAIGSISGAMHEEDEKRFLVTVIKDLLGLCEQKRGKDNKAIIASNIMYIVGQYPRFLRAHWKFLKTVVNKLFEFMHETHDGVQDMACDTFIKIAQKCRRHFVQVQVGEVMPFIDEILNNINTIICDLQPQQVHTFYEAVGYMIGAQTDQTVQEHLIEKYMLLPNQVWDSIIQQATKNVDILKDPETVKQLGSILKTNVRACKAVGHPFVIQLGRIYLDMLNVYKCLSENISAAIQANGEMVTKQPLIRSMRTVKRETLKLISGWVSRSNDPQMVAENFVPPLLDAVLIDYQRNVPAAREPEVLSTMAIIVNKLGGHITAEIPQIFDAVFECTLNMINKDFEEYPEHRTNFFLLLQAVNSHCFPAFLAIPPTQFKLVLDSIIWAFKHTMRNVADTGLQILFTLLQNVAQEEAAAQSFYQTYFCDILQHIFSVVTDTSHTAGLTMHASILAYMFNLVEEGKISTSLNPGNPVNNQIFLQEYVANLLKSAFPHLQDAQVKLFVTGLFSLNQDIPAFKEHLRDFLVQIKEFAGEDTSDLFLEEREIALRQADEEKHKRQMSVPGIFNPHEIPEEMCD
Method: Stably transfected HeLa NLSSV40-AcGFP-NESPKI were cultured as described in Vercruysse et al.
To study the XPO1-mediated nuclear export, stably transfected HeLa NLSSV40-AcGFP-NESPKI reporter cells were seeded at 8000 cells per well in 96-well all clear tissue culture plates (TPP). After overnight incubation, cells were treated with different doses of compound or solvent (DMSO) for 2 h and then fixed and counterstained with DAPI. Fluorescence was read on an ArrayScan XTI High Content Reader (Thermo Fisher Scientific, Waltham, MA, USA). Nuclear and cytoplasmic compartments were segmented and their average pixel intensities in the green channel were quantitated employing the HCS Studio software. Genedata Screener software was used for dose-response curve fitting, and calculation of EC50 values was based on the percentage of cells having a predominant nuclear localisation (ratio of nuclear to cytoplasmic signal equal or above 1.4) of the reporter construct. Compounds were tested in two independent experiments and represented as mean ± SEM.

Hap-1 cells = experiment: Cell proliferation assay (IncuCyte confluence), Hap-1; assay type: cell-based; details: Homo sapiens, HAP1; Hap-1 chronic myeloid leukemia; 72 h; mean of two independent experiments ± SEM; read-out: IC50 antiproliferative activity Hap-1
Method: (§1) Cancer cell lines HCT-116, NCI-H460, HL-60, K-562 and Z-138 were acquired from the American Type Culture Collection (ATCC, Manassas, VA, USA). The DND-41 cell line was purchased from the Deutsche Sammlung von Mikroorganismen und Zellkulturen (DSMZ Leibniz-Institut, Brunswick, Germany), and the HAP-1 cell line was ordered from Horizon Discovery (Horizon Discovery Group, Water Beach, UK). All cell lines were cultured as recommended by the suppliers. Culture media were purchased from Gibco Life Technologies and supplemented with 10% fetal bovine serum (HyClone, GE Healthcare Life Sciences, Chicago, Illinois, USA).
(§2) Adherent cell lines HCT-116, NCI-H460 and Hap-1 cells were seeded at a density between 500 and 1500 cells per well in 384-well tissue culture plates (Greiner). After overnight incubation, cells were treated with different concentrations of the test compounds. Suspension cell lines HL-60, K-562, Z-138 and DND-41 were seeded at densities ranging from 2500 to 5500 cells per well in 384-well culture plates containing the test compounds at the same concentration points.

HCT-116 cells = experiment: Cell proliferation assay (IncuCyte confluence), HCT-116; assay type: cell-based; details: Homo sapiens; HCT-116 colorectal carcinoma; 72 h; mean of two independent experiments ± SEM; read-out: IC50 antiproliferative activity HCT-116
Method: as §1, §2

NCI-H460 cells = experiment: Cell proliferation assay (IncuCyte confluence), NCI-H460; assay type: cell-based; details: Homo sapiens; NCI-H460 lung carcinoma; 72 h; mean of two independent experiments ± SEM; read-out: IC50 antiproliferative activity NCI-H460
Method: as §1, §2

DND-41 cells = experiment: Cell proliferation assay (IncuCyte confluence), DND-41; assay type: cell-based; details: DND41; DND-41 acute lymphoblastic leukemia; 72 h; mean of two independent experiments ± SEM; read-out: IC50 antiproliferative activity DND-41
Method: as §1, §2

HL-60 cells = experiment: Cell proliferation assay (IncuCyte confluence), HL-60; assay type: cell-based; details: Homo sapiens; HL-60 acute myeloid leukemia; 72 h; mean of two independent experiments ± SEM; read-out: IC50 antiproliferative activity HL-60
Method: as §1, §2

K-562 cells = experiment: Cell proliferation assay (IncuCyte confluence), K-562; assay type: cell-based; details: Homo sapiens, K562; K-562 chronic myeloid leukemia; 72 h; mean of two independent experiments ± SEM; read-out: IC50 antiproliferative activity K-562
Method: as §1, §2

Z-138 cells = experiment: Cell proliferation assay (IncuCyte confluence), Z-138; assay type: cell-based; details: Homo sapiens; Z-138 non-Hodgkin lymphoma; 72 h; mean of two independent experiments ± SEM; read-out: IC50 antiproliferative activity Z-138
Method: as §1, §2

[1] = GSH reactivity assay (HPLC, DTNB quench); assay type: physicochemical; details: 500 µM compound, 5 mM GSH, 37 °C; for Reaction with GSH (hetero-Michael addition), qualitative: PBS pH 7.4 with EDTA:DMSO 1:1
Method: In order to determine if these chalcones could react with thiol groups through a hetero-Michael addition reaction, a few selected compounds (9, 10, 13 and 18) were incubated with glutathione (GSH). After different incubation times, the reactions were quenched by adding 5,5′-dithiobis(2-nitrobenzoic acid) (DTNB, Ellman´s reagent) (1:1 ratio with respect to the initial concentration of GSH). The course of the reaction was followed by HPLC, adapting reported procedures. […] Thus, although this assay is only qualitative, the tendency observed among these chalcones nicely fits the reactivity described for α-X-2´3,4,4´-tetramethylchalcones.
A 500 µM sample of the tested compound was incubated with 5 mM reduced L-glutathione for 24 h at 37 °C with a final volume of 200 μL. As a solvent system, 20 mM PBS buffer pH 7.4 with 2 mM EDTA:DMSO (1:1) was used. To perform the assay, stock solutions of 20 mM of the chalcones (9, 10, 13 and 18) and 15 mM of reduced L-glutathione were freshly prepared for every experiment and then diluted properly to give the final electrophile:nucleophile ratio (1:10). A 5 mM solution of 5,5′-dithiobis(2-nitrobenzoic acid) (DTNB) was prepared in the same solvent system to quench the reaction. After different time points (10 min, 1 h, 4 h and 24 h), an aliquot of 20 μL of the incubation mixture was quenched by adding 20 μL of the DTNB stock solution, mixed thoroughly, and then analyzed by HPLC. HPLC analysis was performed in Agilent 1120 compact LC, column ACE 5 C18-300 (15 cm × 4.6 mm); UV detection was performed at λ = 254 nm. Solvents used were acetonitrile for bottle A and H2O (containing 0.05% TFA) for bottle B, and the flow rate was 1mL/min. The gradients used were: (A) incubations with chalcone 9: from 10% to 80% of solvent A in 10 min; (B) incubations with chalcones 10 and 18: from 10% to 100% of solvent A in 10 min. The new peaks were analysed by LC-MS. As controls, a 500 μM solution of the α,β-unsaturated compound was also analysed, and a 5 mM reduced L-glutathione solution was quenched by adding DNTB at the same time points. In general, after 6 h of incubation, no GSH was detected.

[2] = test system: panel of cancer cell lines; experiment: Antiproliferative activity, panel of cancer cell lines; assay type: cell-based; details: panel of cancer cell lines
Method: as §2

SMILES	IC50 (XPO1)	IC50 (HCT-116 cells)	IC50 (NCI-H460 cells)	IC50 (HL-60 cells)	IC50 (K-562 cells)	XPO1 inhibition, in words (XPO1)	Reversibility of GSH adducts (retro-Michael), qualitative ([1]; longer incubation)	melting point	IC50 (Hap-1 cells)	IC50 (DND-41 cells)	IC50 (Z-138 cells)	Reaction with GSH (hetero-Michael addition), qualitative [1]	Antiproliferative activity, in words [2]
NC(=O)C(=Cc1cncnc1)C(=O)c1ccc2ccccc2c1 [Compound 5, reference compound]	9.18 ± 3.28 µM	–	–	–	–	–	–	–	–	–	–	–	–
COC(=O)/C(=C/c1cncnc1)C(=O)c1ccc2ccccc2c1 [Compound 13, (E)-2-Methoxycarbonyl-1-(naphthalene-2-yl)-3-(pyrimidin-5-yl)prop-2-en-1-one]	> 100 µM	≥ 15.5 µM	≥ 47.1 µM	> 100 µM	> 100 µM	inactive against XPO1	adducts reverted to the parent chalcone	161 to 163 °C	≥ 54.9 µM	≥ 30.6 µM	> 100 µM	provided the Michael adducts with GSH after a short reaction time	almost inactive
NC(=O)/C(=C/c1cncnc1)C(=O)c1ccc2ccccc2c1 [Compound 15, (E)-2-Carbamoyl-1-(naphthalene-2-yl)-3-(pyrimidin-5-yl)prop-2-en-1-one]	~10 µM	5.3 ± 3.1 µM	2.6 ± 0.7 µM	5.5 ± 3.6 µM	2.1 ± 0.1 µM	–	–	–	2.1 ± 0.7 µM	8.9 ± 0.9 µM	5.1 ± 2.7 µM	–	slightly less active than the parent chalcone 9
C/C(=C\c1cncnc1)C(=O)c1ccc2ccccc2c1 [Compound 18, (E)-2-Methyl-1-(naphthalen-2-yl)-3-(pyrimidin-5-yl)prop-2-en-1-one]	> 100 µM	> 100 µM	> 100 µM	≥ 40.9 µM	48.5 ± 2.4 µM	inactive against XPO1	–	–	> 100 µM	39.1 ± 5.3 µM	> 100 µM	remained almost unaltered even after 4 h of incubation	almost inactive
O=C(/C=C/c1cccnc1)c1ccc2ccccc2c1 [Compound 24, (E)-1-(Naphthalen-2-yl)-3-(pyridin-3-yl)prop-2-en-1-one]	1.27 ± 0.29 µM	3.1 ± 0.9 µM	4.3 ± 2.2 µM	3.5 ± 2.1 µM	2.2 ± 0.03 µM	–	–	123 to 125 °C	1.6 ± 0.1 µM	1.8 ± 0.5 µM	1.6 ± 0.1 µM	–	low µM range
O=C(/C=C/c1ccccn1)c1ccc2ccccc2c1 [Compound 25, (E)-1-(Naphthalen-2-yl)-3-(pyridin-2-yl)prop-2-en-1-one]	7.28 ± 1.34 µM	3.9 ± 1.5 µM	51.6 ± 11.7 µM	1.8 ± 0.05 µM	4.8 ± 2.8 µM	–	–	89 to 90 °C	3.4 ± 0.5 µM	2.6 ± 0.4 µM	2.3 ± 0.5 µM	–	low µM range

Second part, led by results:

IC50 (XPO1)	IC50 (HCT-116 cells)	IC50 (NCI-H460 cells)	IC50 (HL-60 cells)	IC50 (K-562 cells)	XPO1 inhibition, in words (XPO1)	Reversibility of GSH adducts (retro-Michael), qualitative ([1]; longer incubation)	melting point	SMILES	IC50 (Hap-1 cells)	IC50 (DND-41 cells)	IC50 (Z-138 cells)	Reaction with GSH (hetero-Michael addition), qualitative [1]	Antiproliferative activity, in words [2]
10.7 ± 3.24 µM	1.9 ± 0.4 µM	7.7 ± 1.1 µM	0.9 ± 0.2 µM	4 ± 0.2 µM	–	–	135 to 137 °C	O=C(/C=C/c1ccncc1)c1ccc2ccccc2c1 [Compound 26, (E)-1-(Naphthalen-2-yl)-3-(pyridin-4-yl)prop-2-en-1-one]	2.3 ± 0.3 µM	1.9 ± 0.4 µM	1.1 ± 0.4 µM	–	low µM range
87.3 ± 4.91 µM	≥ 22.2 µM	17.3 ± 4.6 µM	23.4 ± 1.9 µM	42.9 ± 0.1 µM	almost inactive against XPO1	–	81 to 82 °C	COC(=O)/C(=C\c1cncnc1)C(=O)c1cc(OC)cc(OC)c1 [Compound 30, (E)-2-Methoxycarbonyl-1-(3′,5′-dimethoxybenzoyl)-3-(pyrimidin-5′-yl)prop-2-en-1-one]	≥ 32 µM	43.2 ± 6.4 µM	47.6 ± 1.1 µM	–	considerably less active than the α-H chalcone 10
12.3 ± 1.28 µM	34.2 ± 6.5 µM	16.9 ± 4.5 µM	10 ± 0.9 µM	37.5 ± 0.9 µM	active	–	–	COCCOc1cc(OC)cc(C(=O)/C=C/c2cncnc2)c1 [Compound 33, (E)-1-(3′-Methoxy-5′-(2-methoxyethoxy)phenyl)-3-(pyrimidin-5′’-yl)prop-2-en-1-one]	4.3 ± 2.5 µM	3.7 ± 1.6 µM	1.5 ± 0.2 µM	–	–
1.59 ± 0.36 µM	52.9 ± 3.6 µM	34.5 ± 5.2 µM	40.2 ± 10.1 µM	4.1 ± 1.9 µM	active	–	–	COc1cc(OCC=C(C)C)cc(C(=O)/C=C/c2cncnc2)c1 [Compound 34, (E)-1-(3′-Methoxy-5′-((3-methylbut-2-en-1-yl)oxy)phenyl)-3-(pyrimidin-5′’-yl)prop-2-en-1-one]	10 ± 2 µM	10.1 µM	4.6 ± 2.7 µM	–	–
